Test results reported in patent publication US20240285571A1, “METHODS OF TREATING BONE INFECTIONS” (MICROBION CORPORATION, priority 2020, published 2024).
Values after ≈ are worked out from the molar mass of the structure shown. Like-named read-outs stand apart in the source and are kept apart here.

Legend:
S. aureus ATCC 29213 = details: per CLSI M100-S24 or provided by Microbion; cited from earlier work
P. aeruginosa [1] = details: P. aeruginosa MMX 103 (ATCC 27853); cited from earlier work
P. aeruginosa [2] = experiment: Broth microdilution MIC (Example 5); assay type: cell-based, Pseudomonas aeruginosa; details: Pseudomonas aeruginosa
Method: (§1) Test and Comparator Agents: The test agents were stored at room temperature until assayed. […] The stock solutions were allowed to stand for at least 1 hr prior to use to auto-sterilize.
(§2) TestMedia: Test media were prepared and stored in accordance with guidelines from CLSI (4, 6, 7).
(§3) Broth Microdilution MC Testing (Aerobic Bacteria and Yeast): The broth microdilution assay method employed for the susceptibility testing of aerobic bacteria (excluding N. gonorrhoeae which was evaluated by agar dilution) and yeast essentially followed the procedures described by CLSI (3, 4, 7, 8) and employed automated liquid handlers to conduct serial dilutions and liquid transfers. […] These would become the ‘mother plates’ from which ‘daughter’ or test plates would be prepared. The drugs (300 μL at 40× the desired top concentration in the test plates) were dispensed into the appropriate well in Column 1 of the mother plates. The Biomek 2000 was used to make serial two-fold dilutions through Column 11 in the “mother plate”. The wells of Column 12 contained no drug and ultimately served as the organism growth control wells.
(§4) The daughter plates were prepared using the Biomek FX which transferred 5 μL of drug solution from each well of a mother plate to the corresponding well of the correct daughter plate in a single step.
(§5) A standardized inoculum of each organism was prepared per CLSI methods (3, 7). Isolated colonies of each test isolate were picked from the primary plate and a suspension was prepared to equal a 0.5 McFarland turbidity standard. Standardized suspensions were then diluted […] (1:100 for yeast, 1:20 for bacteria). After dilution, the inoculum suspensions were then transferred to compartments of sterile reservoirs divided by length (Beckman Coulter), and the Biomek 2000 was used to inoculate all plates. Daughter plates were placed on the Biomek 2000 in reverse orientation so that plates were inoculated from low to high drug concentration.
(§6) The Biomek 2000 delivered 10 μL of standardized inoculum into each well of the appropriate daughter plate for an additional 1:20 dilution.
(§7) Plates were stacked 4 high, covered with a lid on the top plate, placed into plastic bags, and incubated at 35° C. for approximately 24-48 hr for all yeast isolates and 16-24 hr for aerobic bacteria. Plates were viewed from the bottom using a plate viewer. […] MIC endpoints for the test agents and control compounds were read per CLSI criteria (3, 7).

A. baumannii = experiment: Broth microdilution MIC (Example 5); assay type: cell-based, Acinetobacter baumannii; details: Acinetobacter baumannii
Method: as §1, §2, §3, §4, §5, §6, §7

S. aureus = experiment: Broth microdilution MIC (Example 5); assay type: cell-based, Staphylococcus aureus; details: Staphylococcus aureus
Summary of the method: (§8)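 CLSI broth microdilution; two-fold serial dilutions, drug-free growth-control wells. Inoculum 0.5 McFarland, diluted 1:20 in media, then a further 1:20 in wells.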

S. pneumoniae = experiment: Broth microdilution MIC (Example 5); assay type: cell-based; details: Streptococcus pneumoniae
Summary of the method: as §8

B. fragilis = experiment: Agar dilution MIC, anaerobes (Example 5); assay type: cell-based; details: Bacteroides fragilis, ATCC25285
[3] = system: P. aeruginosa and A. baumannii; experiment: MIC summary, P. aeruginosa and A. baumannii (Example 5); assay type: cell-based; details: all evaluated P. aeruginosa and A. baumannii isolates (Table 4); read-out: MIC values across isolates
Method: Test and Comparator Agents: The test agents were stored at room temperature until assayed. All test agents were suspended and diluted in 100% dimethylsulfoxide (DMSO), and were ultimately tested at a final concentration of 0.06-64 μg/mL. The stock solutions were allowed to stand for at least 1 hr prior to use to auto-sterilize.
TestMedia: Test media were prepared and stored in accordance with guidelines from CLSI (4, 6, 7). […] Neisseria gonorrhoeae were evaluated by agar dilution using agar consisting of GC medium base (BD; Lot No. 4274618) supplemented with 1% IsoVitaleX (BD; Lot No. 5246843).
Broth Microdilution MC Testing (Aerobic Bacteria and Yeast): The broth microdilution assay method employed for the susceptibility testing of aerobic bacteria (excluding N. gonorrhoeae which was evaluated by agar dilution) and yeast essentially followed the procedures described by CLSI (3, 4, 7, 8) and employed automated liquid handlers to conduct serial dilutions and liquid transfers. […]
Plates were stacked 4 high, covered with a lid on the top plate, placed into plastic bags, and incubated at 35° C. for approximately 24-48 hr for all yeast isolates and 16-24 hr for aerobic bacteria. […] MIC endpoints for the test agents and control compounds were read per CLSI criteria (3, 7).

N. gonorrhoeae = experiment: microbe, parasite or virus in culture; details: Neisseria gonorrhoeae
[4] = ATCC27853, P. aeruginosa MMX 103 (ATCC 27853), QC, read-out: MIC
[5] = A. baumannii MMX 3373, Sensitive, read-out: MIC
[6] = ATCC 29213 / MSSA, S. aureus MMX 101 (ATCC 29213), QC, MSSA
[7] = ATCC49619, S. pneumoniae MMX 6837 (ATCC 49619), QC
[8] = S. pneumoniae MMX 880, LevR SXTR CCR EryR PenR
[9] = S. pneumoniae MMX 937, MemR SXTR CCR EryR PenR
[10] = S. pneumoniae MMX 3959, CCR EryR
[11] = S. pneumoniae MMX 5440, MemR SXTR CCR EryR PenR
[12] = S. pneumoniae MMX 5445, MemR SXTR CCR EryR PenR
[13] = S. pneumoniae MMX 8133, MemR SXTR CCR EryR PenR
[14] = ATCC49226, N. gonorrhoeae MMX 683 (ATCC 49226), QC
[15] = N. gonorrhoeae MMX 6757, CTX NS
[16] = read-out: MIC values across isolates, N. gonorrhoeae isolates (Table 7)

For `NCC[C@H](O)C(=O)N[C@@H]1C[C@H](N)[C@@H](O[C@H]2O[C@H](CN)[C@@H](O)[C@H](O)[C@H]2O)[C@H](O)[C@H]1O[C@H]1O[C@H](CO)[C@@H](O)[C@H](N)[C@H]1O` [Amikacin], the “MIC, acceptable range” value (S. aureus ATCC 29213) is listed as 1 to 4 µg/mL and the “MIC, expected results” value (S. aureus ATCC 29213) is listed as 2 µg/mL (≈ 3.42 µM).
In the case of `CC(C)(O/N=C(\C(=O)N[C@@H]1C(=O)N2C(C(=O)[O-])=C(C[n+]3ccccc3)CS[C@H]12)c1csc(N)n1)C(=O)O` [Ceftazidime], the “CLSI QC range of MIC” value (P. aeruginosa [1]) is listed as “(1-4) μg/mL”.
`OCC(S)CS.[Bi]` (centres unmarked) [MB-2B, bismuth-2,3-dimercaptopropanol] showed an MIC (P. aeruginosa [2]; [4]) of 8 µg/mL, an MIC (P. aeruginosa [2]; P. aeruginosa MMX 1381, MDR) of 2 µg/mL and an MIC (P. aeruginosa [2]; P. aeruginosa MMX 2562, MDR) of 4 µg/mL. The MIC (P. aeruginosa [2]; P. aeruginosa MMX 3991, MDR) was 8 µg/mL, the MIC (P. aeruginosa [2]; P. aeruginosa MMX 4654, IMP-7) was 8 µg/mL and the MIC (P. aeruginosa [2]; P. aeruginosa MMX 4697, VIM-2) was 16 µg/mL. The MIC (A. baumannii; A. baumannii MMX 2592, MDR) was 16 µg/mL, the MIC (A. baumannii; A. baumannii MMX 2593, MDR) was 16 µg/mL and the MIC (A. baumannii; A. baumannii MMX 3372, MDR) was 16 µg/mL. For the same compound, the MIC (A. baumannii; [5]) was 16 µg/mL, the MIC (A. baumannii; NCTC13304, A. baumannii MMX 4651 (NCTC 13304), MDR, OXA-27) was 16 µg/mL and the MIC (S. aureus; [6]) was 0.5 µg/mL. The MIC (S. aureus; MRSA, S. aureus MMX 5373) was ≤ 0.06 µg/mL, the MIC (S. aureus; MRSA, S. aureus MMX 6311) was ≤ 0.06 µg/mL and the MIC (S. aureus; MRSA, S. aureus MMX 9203) was 0.25 µg/mL. The MIC (S. aureus; MRSA, S. aureus MMX 9204) was ≤ 0.06 µg/mL, the MIC (S. aureus; MRSA, S. aureus MMX 9205) was ≤ 0.06 µg/mL and the MIC (S. aureus; MRSA, read-out: MIC values against MRSA, MRSA isolates (Table 5)) was < 0.06 µg/mL. The MIC (S. pneumoniae; [7]) was 8 µg/mL, the MIC (S. pneumoniae; [8]) was 8 µg/mL and the MIC (S. pneumoniae; [9]) was 1 µg/mL. The MIC (S. pneumoniae; [10]) was 8 µg/mL, the MIC (S. pneumoniae; [11]) was 8 µg/mL and the MIC (S. pneumoniae; [12]) was 8 µg/mL. It also gave an MIC (S. pneumoniae; [13]) of 8 µg/mL, an MIC (S. pneumoniae; read-out: MIC values across isolates, pneumococci (Table 6)) of 1 to 8 µg/mL and an MIC (B. fragilis) of 8 µg/mL. It also gave an MIC [3] of 2 to 16 µg/mL, an MIC (N. gonorrhoeae; [14]) of 0.12 µg/mL and an MIC (N. gonorrhoeae; [15]) of 0.5 µg/mL. It also gave an MIC (N. gonorrhoeae; N. gonorrhoeae MMX 6791, CIPR) of 0.12 µg/mL, an MIC (N. gonorrhoeae; N. gonorrhoeae MMX 6792, CIPR) of 0.12 µg/mL and an MIC (N. gonorrhoeae; N. gonorrhoeae MMX 6793, CIPR) of 0.5 µg/mL. The MIC (N. gonorrhoeae; [16]) was 0.12 to 0.5 µg/mL.
With `CC(S)C(C)S.[Bi]` (centres unmarked) [MB-6, bismuth-2,3-butanedithiol] the MIC (P. aeruginosa [2]; [4]) was 1 µg/mL, the MIC (A. baumannii; [5]) was 0.5 µg/mL and the MIC (S. aureus; [6]) was ≤ 0.06 µg/mL. For the same compound, the MIC (S. aureus; MRSA, S. aureus MMX 5373) was ≤ 0.06 µg/mL, the MIC (S. aureus; MRSA, S. aureus MMX 6311) was ≤ 0.06 µg/mL and the MIC (S. aureus; MRSA, S. aureus MMX 9204) was ≤ 0.06 µg/mL. The MIC (S. aureus; MRSA, S. aureus MMX 9205) was ≤ 0.06 µg/mL, the MIC (S. pneumoniae; [7]) was 0.5 µg/mL and the MIC (S. pneumoniae; [8]) was 0.5 µg/mL. For the same compound, the MIC (S. pneumoniae; [9]) was 8 µg/mL, the MIC (S. pneumoniae; [10]) was 1 µg/mL and the MIC (S. pneumoniae; [11]) was 0.5 µg/mL. The MIC (S. pneumoniae; [12]) was 0.5 µg/mL, the MIC (S. pneumoniae; [13]) was 0.5 µg/mL and the MIC (B. fragilis) was 1 µg/mL. The MIC [3] was 0.5 to 2 µg/mL, the “MIC, acceptable range” value (S. aureus ATCC 29213) was 0.12 to 0.5 µg/mL and the “MIC, expected results” value (S. aureus ATCC 29213) was 0.25 µg/mL. For the same compound, the MIC (N. gonorrhoeae; [14]) was 0.06 µg/mL, the MIC (N. gonorrhoeae; [15]) was 0.06 µg/mL and the MIC (N. gonorrhoeae; N. gonorrhoeae MMX 6791, CIPR) was 0.12 µg/mL. The MIC (N. gonorrhoeae; N. gonorrhoeae MMX 6792, CIPR) was 0.12 µg/mL, the MIC (N. gonorrhoeae; N. gonorrhoeae MMX 6793, CIPR) was 0.25 µg/mL and the MIC (N. gonorrhoeae; [16]) was 0.06 to 0.25 µg/mL.
For `C[C@@H](O)[C@H]1C(=O)N2C(C(=O)O)=C(S[C@@H]3CN[C@H](C(=O)N(C)C)C3)[C@H](C)[C@H]12` [Meropenem], the “CLSI QC range of MIC” value (P. aeruginosa [1]) is listed as “(0.25-1) μg/mL”.
